# Experimental data from patent EP4699605A1, “USE OF NOVEL COMPOUND FOR TREATING INTRACTABLE DISEASES” (YJ Cerapeutics Inc., priority 2023, dated 2024).
# Columns and labels:
# [1] = Observation of sedation as a side effect at high doses; format: in vivo, rats; details: 100 mg/kg
# [2] = tested on: neutrophils and macrophages; assay: Introduction of neutrophils and macrophages into the bladder after SCI (immunofluorescence); format: in vivo, Sprague-Dawley rats
# Source text: When bladder dysfunction occurred due to spinal cord injury, cystitis, etc., a decrease in tight junction protein in the urothelium in contact with urine occurred, which increased the permeability of the bladder wall to introduce the harmful substances into the tissue, and caused the death of the urothelium serving as a barrier, and an increase in inflammatory response in the bladder. In order to determine what effect the compound YJ102 of the present disclosure had on these pathological processes, the expression of tight junction proteins ZO-1 and occludin was confirmed by Western blot analysis and immunofluorescence staining, and the introduction of neutrophils and macrophages into the bladder was confirmed by immunofluorescence staining. Specifically, the cut bladder tissue sections were frozen in liquid nitrogen, ground in a mortar and pestle to be completely lysed, and homogenized by adding Lysis Buffer [50 mM Tris-HCl (pH 7.4), 150 mM NaCl, 2 mM MgCl2, 0.1% NP40]. The homogenized tissue sections were transferred to a microcentrifuge tube, rock at 4°C for 20 minutes, and then centrifuged at 25,000 × g for 10 minutes. The supernatant was transferred to a new microcentrifuge, the protein concentrations were measured using a BCA kit, and then samples for Western blot were prepared by adding a 1X sample buffer and boiling for 5 minutes. […]
# urothelial cells = assay: Urothelial cell apoptosis in bladder after SCI (TUNEL, cleaved caspase-3, UPIII Western blot); format: in vivo, Sprague-Dawley rats; details: day 3 after spinal cord injury
# Source text: The effect of YJ102 on urothelial cell apoptosis in bladder tissue after spinal cord injury was confirmed by TUNEL staining, and the protein levels of cleaved caspase-3 indicating caspase-3 activation, and UPIII as a urothelial marker were confirmed by Western blot analysis using p75 (Promega), cleaved caspase-3 (Cell signaling technology), and UPIII (Abcam) as primary antibodies. In addition, in order to confirm whether the mechanism of apoptosis was caused by a p75 neurotrophin receptor, which was involved in urothelial apoptosis, the expression level of p75 was confirmed by RT-PCR, Western blot analysis, and immunofluorescence staining. For RT-PCR analysis, the obtained bladder tissue sections were frozen in liquid nitrogen, and ground in a mortar and pestle to be completely lysed, and then RNA was isolated using a TRIZOL Reagent (Invitrogen) according to a manual, and 20 µl of the total mixture was prepared by using 1 µg of total RNA, and cDNA was synthesized using MMLV reverse transcriptase (Invitrogen).
# inflammatory factors = assay: Inflammatory cytokine and chemokine expression in bladder after SCI (RT-PCR, Western blot); format: in vivo, Sprague-Dawley rats; details: bladder tissue after spinal cord injury
# Source text: To confirm the effect of YJ102 on the expression of inflammatory factors in the bladder after spinal cord injury, the expression of inflammatory cytokines and chemokines, COX-2, iNOS, IL-6, IL-1β, MIP-1α, MIP-1β, MIP-2α, and Gro-α in bladder tissue was confirmed by RT-PCR analysis and Western blot analysis using the primers in Table 2 above. In addition, even in the Raw 264.7 cell line, the expression was verified by RT-PCR analysis.
# [3] = tested on: IMQ psoriasis animal model; assay: PASI scores (erythema, scaling) in IMQ psoriasis animal model; format: in vivo, C57BL/6 mouse; details: 5 mg/kg intraperitoneally on Day 2, Day 3, Day 4, vs Vehicle group
# Procedure: (§1) Psoriasis caused by excessive production of skin cells was a chronic skin disease associated with various factors, including autoimmune diseases, and its symptoms included red and thickened skin and abnormally occurring scaling. […] Specifically, the back region of a C57BL/6 mouse (male, 18 to 20 g, 8 weeks) (Daehan Biolink, Eumseong, Korea) was shaved to remove hair, and then applied with IMQ cream (83 mg/day) (5%) for consecutive 5 days from Day 0 to Day 4 to induce psoriasis-like skin inflammation, and a normal control mouse (Sham) was applied with Vaseline cream (FIG. 16A).
# In order to confirm the effect of YJ102 (Chemical Formula 1), a compound of the present disclosure, on psoriasis, YJ102 dissolved in DMSO, methyl pyrrolidinone, and water (1 : 1.5 : 1) was administered intraperitoneally (5 mg/kg) for a total of 3 days on Day 2, Day 3, and Day 4, and the Vehicle group was administered in the same amount of a solution of DMSO, methyl pyrrolidinone, and water (1 : 1.5 : 1) (FIG. 16A). To assess daily skin changes, PASI scores were used for erythema and scaling. The PASI score was evaluated as a severity scale of 0 to 4, in which 0 meant none, 1 meant mild, 2 meant moderate, 3 meant severe, and 4 meant very severe. (PASI Reference: Yashpal Manchanda, Abhishek De, Sudip Das, and Disha Chakraborty. Disease Assessment in Psoriasis. Indian J Dermatol. 2023 May-Jun; 68 (3): 278-281.)
# [4] = tested on: IMQ psoriasis animal model; assay: Epidermal layer thickness (H&E) in IMQ psoriasis animal model; format: in vivo, C57BL/6 mouse
# Procedure: as §1
# On day 6, the skin tissue of the psoriasis mouse model was stained with Hematoxyline & Eosin, and the epidermal layer thickness was measured. Specifically, on Day 6, the skin of the mouse back was extracted, immersed in 4% paraformaldehyde for 24 hours to fix the tissue, and then paraffin blocks were made to prepare paraffin tissue sections with a thickness of 5 µm. In order to measure the thickness of the epidermal layer, paraffin tissue was stained with Hematoxylene & Eosin (Abcam) according to the manufacturer's protocol, and five sections of the epidermal layer from each mouse were photographed at 200x magnification using an optical microscope. The epidermal layer thickness was measured in tissues from a total of five mice (a total of 25 sections) and the average value was calculated.
smiles,measurement,setting,value
CCc1ccc(N(C(=O)COC)c2nc3cc(Cl)ccc3o2)cc1 [YJ102],sedation as a side effect,[1],not observed
same,introduction of MPO-positive neutrophils into the bladder,[2]; after spinal cord injury (day 1),significantly inhibited
same,introduction of ED-1-positive macrophages into the bladder,[2]; after spinal cord injury (day 7),significantly inhibited
same,reduction of the level of UPIII (urothelial loss),urothelial cells; Western blot,inhibited
same,caspase-3 activation,urothelial cells; cleaved caspase-3 Western blot,inhibited
same,number of TUNEL-positive cells in the urothelium,urothelial cells; vs Vehicle group,significantly reduced
same,"expression of COX-2, iNOS, IL-6, IL-1β, MIP-1α, MIP-1β, MIP-2α, and Gro-α",inflammatory factors,significantly reduced
same,degree of erythema (PASI score),[3],significantly lower
same,degree of scaling (PASI score),[3],significantly lower
same,reduction of epidermal layer thickness compared to the Vehicle group,[4]; Day 6,approximately 35%
same,epidermal layer thickness,"[4]; Day 6, 5 mg/kg intraperitoneally, Sham 36.6 ± 2.3, Vehicle 141.3 ± 7.5",89.8 ± 6.8 µm
same,number of cells introduced into the dermal layer,"[4]; Day 6, skin tissue H&E",decreased to the Sham level
